The values below come from ChEMBL document CHEMBL1148179, “Structural revisions of some non-adjacent bis-tetrahydrofuran annonaceous acetogenins” (1993).

SMILES strings stand for the structures. In brackets after ≈: the same amount, converted by molar mass.

What all share (type): functional
For one experiment, the system named is MCF7. The experiment can be described thus: Cytotoxicity against human MCF7 cells. Particulars: read-out: ED50 (the source's name).
The next experiment deals with A549. The experiment can be described thus: Cytotoxicity against human A549 cells.
The test system of the next experiment is HT-29. The experiment can be described thus: Cytotoxicity against human HT-29 cells. The settings on record: read-out: ED50 (the source's name).

As for `CCCCCC[C@H](O)CCC[C@H](O)[C@H]1CC[C@H]([C@H]2CC(O)[C@H]([C@H](O)CCCCCCCCCCCCC3=C[C@H](C)OC3=O)O2)O1` (stereo partly specified) [ANNONIN XVI], the values for the EC50 in the experiment on MCF7 and with HT-29 were 1.46 µg/mL (≈ 2.29 µM) and 1.42 µg/mL (≈ 2.22 µM), respectively. The compound also returned an ED50 with A549 of under 1 ×10⁻⁸ ug/ml.
For `COc1cccc2c1C(=O)c1c(O)c3c(c(O)c1C2=O)C[C@@](O)(C(=O)CO)C[C@@H]3O[C@H]1C[C@H](N)[C@H](O)[C@H](C)O1` [DOXORUBICIN] the same measures were 0.0913 µg/mL (≈ 0.168 µM), 0.0013 µg/mL (≈ 0.00239 µM) and 2.08 ×10⁻⁴ ug/ml.
